Series [1] is described as follows: Acute toxicity, i.p., mice (DL50). The class given is in vivo. The following applies: mouse, in vivo, ip, i.p. injection, male Swiss mice; Wilcoxon method. How it is done:
(§1) Male Swiss mice of 20-25 g body weight were treated by i.p. injection with rated concentrations of the three compounds. The values of DL50 and the relative confidence limits were calculated according to the method of Wilcoxon (J. Pharmac. Exp. Ther. 96, 99; 1949).

For series [2], the system named is post-synaptic alpha-receptors. Put plainly: Alpha-blocking activity in vitro, isolated rabbit aorta, antagonism of nor-adrenaline response. As to conditions: for pA2 (M ±DS): isolated rabbit aorta, versus nor-adrenaline. In kind it is biochemical. How it is done: The aorta isolated from a rabbit and prepared according to the procedure of Furchgott and Bhadrakom (J. Pharm. Exp. Ther. 108, 129; 1953) was tested with cumulative doses of nor-adrenaline till maximum responde obtainable in the absence and in the presence of the three compounds. The pA2 values were calculated according to Ariens and Van Rossum (Arch. Int. Pharmacodyn. 110, 275; 1957)
It is evident from the Table given above that the (+) derivative is 100 times as active as the (-) derivative and almost 3 times as active as the (r) compound in blocking the post-synaptic alpha-receptors response to nor-adrenaline.

Series [3] concerns Spontaneously hypertensive rats. Put plainly: Hypotensive activity in vivo, spontaneously hypertensive rats, oral. On the set-up: species or system rat. As to conditions: for ED50: Rattus norvegicus, 30' after oral administration, obtained from graphs; for anti-hypertensive activity (in words): in vivo, comparison among racemate and isomers. How it is done: Spontaneously hypertensive rats were employed after they were fasted for 16 hours and tested for their systemic pressure by bloodless measurements before and after oral administration of the three compounds at the doses of 5-10-15 mg/kg.
The administration of all the compounds gives rise to a lowering of the dose-dependent hypertension, because the regression coefficients are always significative. The ED50 values in mg/kg, obtained from the graphs of the activities observed, are as follows;

Series [4] relates to Male Swiss mice. Put plainly: Acute toxicity, i.p., mice (DL50). In kind it is in vivo. How it is done:
as §1

Structures are written as SMILES.

What is called LD50 is the dose expected to kill half of the subjects tested. The low end stands for a more toxic substance, the high end for a less toxic substance. What is called ED50 is the dose at which the effect has come halfway, by size or by number of responders.

Compound `CCOC(CN1CCN(c2ccccc2OC)CC1)c1cccnc1` (racemic) [(r), (±) 1-(2-ethoxy-2-ethoxy-2-(3'-pyridyl)ethyl)-4-(o-methoxyphenyl)piperazine] gave an LD50 in series [1] of 75 mg/kg. Moreover, the “pA2 (M ±DS)” value in series [2] turned out to be 8.62 ± 0.11. For the same compound, the ED50 in series [3] (0.5 h) was 7.8 mg/kg; in series [3] (1.5 h, 1 h), 18.8 mg/kg.
As for `CCOC(CN1CCN(c2ccccc2OC)CC1)c1cccnc1` (single isomer, unassigned; (-)) [(-), (-) 1-(2-ethoxy-2-(3'-pyridyl)ethyl)-4-(o-methoxyphenyl)piperazine], the DL50 in series [4] (i.p. injection, male Swiss mice, Wilcoxon method) is recorded as 68 mg/kg. In addition, in series [2], the “pA2 (M ±DS)” value was determined as 6.95 ± 0.05. The “anti-hypertensive activity (in words)” value in series [3] is “quite low activity”; in series [3] (listed as laevorotatory isomer) it was “almost inactive”.
Take `CCOC(CN1CCN(c2ccccc2OC)CC1)c1cccnc1` (single isomer, unassigned; (+)) [(+), (+) 1-(2-ethoxy-2-(3'-pyridyl)ethyl)-4-(o-methoxyphenyl)piperazine]: the LD50 in series [1] worked out at 65 mg/kg. Moreover, the “toxicity compared with racemic compound (in words)” value in series [4] (LD50 values or symptomatology) was “same toxicity of said racemic compound”. Moreover, in series [2], the “pA2 (M ±DS)” value is given as 9.04 ± 0.03. Besides, the “activity relative to the (-) derivative in blocking the post-synaptic alpha-receptors response to nor-adrenaline” value in series [2] (versus (-) derivative) is recorded as 100 times. Moreover, the “activity relative to the (r) compound in blocking the post-synaptic alpha-receptors response to nor-adrenaline” value in series [2] (versus (r) compound) is ~3 times. Also, the ED50 came out at 5.5 mg/kg in series [3] (0.5 h) and 10.9 mg/kg in series [3] (1.5 h, 1 h). Moreover, the “anti-hypertensive activity (in words)” value is listed as “most active form” in series [3] and “higher anti-hypertensive activity than the racemic compound” in series [3] (listed as dextrorotatory isomer).

Values taken from patent US4692525A, “Process for the separation of optical isomers of racemic 1-pyridyl-alkyl-4-aryl piperazines, and optical isomers obtained thereby” (Malesci S.p.A. Istituto Farmacobiologico, priority 1983, dated 1987).
